Each structure is given as a SMILES string. Bounds are passed on as bounds.

In one assay the target is T1, Axl (Homo sapiens, UniProt P30530).
T1 construct: purchased Life Technologies
T1 sequence (P30530 26-894): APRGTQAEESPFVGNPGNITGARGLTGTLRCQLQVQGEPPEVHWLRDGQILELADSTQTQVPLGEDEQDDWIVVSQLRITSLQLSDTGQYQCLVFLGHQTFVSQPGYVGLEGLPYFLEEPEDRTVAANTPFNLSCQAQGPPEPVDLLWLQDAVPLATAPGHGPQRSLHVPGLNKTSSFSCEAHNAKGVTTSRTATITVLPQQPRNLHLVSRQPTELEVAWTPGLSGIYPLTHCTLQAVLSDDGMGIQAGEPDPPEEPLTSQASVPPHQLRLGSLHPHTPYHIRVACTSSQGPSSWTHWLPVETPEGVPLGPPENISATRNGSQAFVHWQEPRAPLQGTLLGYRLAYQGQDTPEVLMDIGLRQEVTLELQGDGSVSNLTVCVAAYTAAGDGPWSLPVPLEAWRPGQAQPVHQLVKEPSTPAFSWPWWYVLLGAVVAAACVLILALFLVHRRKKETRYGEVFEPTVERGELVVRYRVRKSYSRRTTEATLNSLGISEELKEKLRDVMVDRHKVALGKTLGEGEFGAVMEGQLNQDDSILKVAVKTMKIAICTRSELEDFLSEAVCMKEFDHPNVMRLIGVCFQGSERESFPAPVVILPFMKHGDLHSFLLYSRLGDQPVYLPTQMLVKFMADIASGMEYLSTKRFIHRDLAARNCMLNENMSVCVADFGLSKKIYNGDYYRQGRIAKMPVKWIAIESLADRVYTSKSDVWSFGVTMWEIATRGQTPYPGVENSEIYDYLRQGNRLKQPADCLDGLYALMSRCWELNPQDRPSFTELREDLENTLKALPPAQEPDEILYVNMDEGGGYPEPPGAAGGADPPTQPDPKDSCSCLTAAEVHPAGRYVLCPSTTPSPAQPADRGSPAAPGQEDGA
Briefly: LanthaScreen Eu kinase binding assay, Axl. To be noted: Tracer 236. On the technique in general: Time-resolved FRET reads energy transfer from a long-lived donor to a nearby acceptor.

Another assay deals with T2, Mer (Homo sapiens, UniProt Q12866).
T2 construct: purchased Life Technologies
T2 sequence (Q12866 21-999): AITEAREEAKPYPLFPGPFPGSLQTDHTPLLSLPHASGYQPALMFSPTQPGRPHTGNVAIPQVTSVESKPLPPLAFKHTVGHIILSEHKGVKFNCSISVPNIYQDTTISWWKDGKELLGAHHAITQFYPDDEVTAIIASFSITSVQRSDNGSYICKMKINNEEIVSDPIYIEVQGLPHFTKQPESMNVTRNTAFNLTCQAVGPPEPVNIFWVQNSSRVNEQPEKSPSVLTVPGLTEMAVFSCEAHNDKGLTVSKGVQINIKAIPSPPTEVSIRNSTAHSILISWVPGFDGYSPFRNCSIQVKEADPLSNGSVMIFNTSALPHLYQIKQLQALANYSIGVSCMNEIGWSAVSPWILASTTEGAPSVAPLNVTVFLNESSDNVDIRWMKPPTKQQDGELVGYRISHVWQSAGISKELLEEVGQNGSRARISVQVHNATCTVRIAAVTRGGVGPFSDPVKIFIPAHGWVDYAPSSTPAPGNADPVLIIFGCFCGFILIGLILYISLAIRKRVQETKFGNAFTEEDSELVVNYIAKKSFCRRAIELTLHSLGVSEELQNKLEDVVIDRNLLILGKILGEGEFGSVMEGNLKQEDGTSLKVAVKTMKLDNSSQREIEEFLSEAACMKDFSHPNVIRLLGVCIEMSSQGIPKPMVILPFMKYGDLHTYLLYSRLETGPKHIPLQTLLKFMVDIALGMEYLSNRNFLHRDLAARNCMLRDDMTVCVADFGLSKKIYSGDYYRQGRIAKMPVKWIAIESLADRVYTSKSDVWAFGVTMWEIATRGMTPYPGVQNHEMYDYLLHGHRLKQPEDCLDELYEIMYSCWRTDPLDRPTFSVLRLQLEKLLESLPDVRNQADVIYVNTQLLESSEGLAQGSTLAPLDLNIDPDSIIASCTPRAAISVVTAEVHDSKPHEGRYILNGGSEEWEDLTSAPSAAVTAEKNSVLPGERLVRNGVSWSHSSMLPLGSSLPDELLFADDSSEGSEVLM
Briefly: LanthaScreen Eu kinase binding assay, Mer. The conditions noted are these: Tracer 236.

Turning to `COc1cc2c(Oc3ccc(NC(=O)c4nn(-c5cnc(N)cn5)cc4OCC(F)(F)F)nc3)ccnc2cc1OC(C)C` [Compound 253], the Kd at Axl and on Mer was less than 0.1 µM throughout.

As for `COc1cc2nccc(Oc3ccc(NC(=O)c4nn(-c5cnc(N)nc5)cc4OCC(F)(F)F)nc3)c2cc1OC` [Compound 237], the Kd on Axl and on Mer was less than 0.1 µM each time.

In the case of `CCOc1cn(-c2cnccc2CO)nc1C(=O)Nc1ccc(Oc2ccnc3cc(OC)c(OC(F)(F)F)cc23)cn1` [Compound 233], the Kd at Axl and at Mer was less than 0.1 µM each time.

Consider `COc1cc2nccc(Oc3ccc(NC(=O)c4nn(-c5ccc(F)cc5OC)cc4OCC4CC4)nc3)c2cc1OC` [Compound 264], for which the Kd at Axl and at Mer was less than 0.1 µM each time.

`COc1cc2nccc(Oc3ccc(NC(=O)c4nn(-c5cnc(N)nc5)cc4OCC4CCC4)nc3)c2cc1OC` [Compound 262]: the Kd at Axl and at Mer was less than 0.1 µM each time.

In the case of `CCOc1cn(-c2nccnc2C(C)(O)CO)nc1C(=O)Nc1ccc(Oc2ccnc3cc(OC)c(OC)cc23)cc1F` (stereo not shown) [Compound 229], the Kd at Axl and at Mer was less than 0.1 µM each time.

For `CCOc1cnn(-c2cccs2)c1C(=O)Nc1ccc(Oc2ccnc3cc(OC)c(OC)cc23)cn1` [Compound 20], the Kd – broadly, the constant that tells how readily two partners part at equilibrium – on Axl was less than 0.1 µM; at Mer, 0.1 to 1 µM.

With `COc1cc2nccc(Oc3ccc(NC(=O)c4nn(-c5cncnc5C5CC5)cc4OCC(F)(F)F)nc3)c2cc1OC` [Compound 261], the Kd on Axl and at Mer was less than 0.1 µM each time.

With `CCOc1cn(-c2cccs2)nc1C(=O)Nc1ccc(Oc2ccnc3cc(OC)c(OC)cc23)cn1` [Compound 17], the Kd on Axl and on Mer was less than 0.1 µM in each case.

With `COc1cc2nccc(Oc3ccc(NC(=O)c4nn(-c5ccc(OC(F)(F)F)cc5Cl)cc4OCC4CC4)nc3)c2cc1OC` [Compound 244], the Kd on Axl and on Mer was less than 0.1 µM in each case.

Regarding `CCOc1cn(Cc2cnccn2)nc1C(=O)Nc1ccc(Oc2ccnc3cc(OC)c(OC)cc23)cc1F` [Compound 215], the Kd on Axl and at Mer was less than 0.1 µM each time.

With `COc1cc2nccc(Oc3ccc(NC(=O)c4nn(-c5ccc(F)cc5C(C)=O)cc4OCC4CC4)nc3)c2cc1OC` [Compound 273], the Kd on Axl and on Mer was less than 0.1 µM throughout.

Take `CCOc1cn(C)nc1C(=O)Nc1ccc(Oc2ccnc3cc(OC)c(OC)cc23)cn1` [Compound 29]: the Kd on Axl was 0.1 to 1 µM; on Mer, less than 0.1 µM.

In the case of `CCOc1cn(-c2ccsc2)nc1C(=O)Nc1ccc(Oc2ccnc3cc(OC)c(OC)cc23)cn1` [Compound 18], the Kd on Axl and on Mer was less than 0.1 µM in each case.

With `CCOc1cn(-c2ncco2)nc1C(=O)Nc1ccc(Oc2ccnc3cc(OC)c(OC)cc23)cn1` [Compound 59], the Kd on Axl and at Mer was less than 0.1 µM throughout.

Consider `COc1cc2nccc(Oc3ccc(NC(=O)c4nn(-c5ccc(F)c(C(C)=O)c5)cc4OCC4CC4)nc3)c2cc1OC` [Compound 274], for which the Kd at Axl and on Mer was less than 0.1 µM in each case.

As to `CCOc1cn(-c2ccoc2)nc1C(=O)Nc1ccc(Oc2ccnc3cc(OC)c(OC)cc23)cn1` [Compound 33], the dissociation constant (Kd) at Axl and on Mer was less than 0.1 µM each time.

On to `CCOc1cn(-c2cnccc2CCCN(C)C)nc1C(=O)Nc1ccc(Oc2ccnc3cc(OC)c(OC)cc23)cn1` [Compound 61], for which the Kd on Axl and on Mer was less than 0.1 µM each time.

`COc1cc2nccc(Oc3ccc(NC(=O)c4nn(-c5ccc(F)cc5Cl)cc4OCC4CC4)nc3)c2cc1OC` [Compound 263]: the Kd on Axl and at Mer was less than 0.1 µM throughout.

Consider `CCOc1cn(-c2cnc(N)nc2)nc1C(=O)Nc1ccc(Oc2ccnc3cc(OC(C)C)c(OC)cc23)cc1F` [Compound 230], for which the Kd at Axl and at Mer was less than 0.1 µM in each case.

For the molecule `COc1cc2nccc(Oc3ccc(NC(=O)c4nn(-c5ccc(F)cc5F)cc4OCC(F)(F)F)nc3)c2cc1OC` [Compound 268], the Kd on Axl and on Mer was less than 0.1 µM in each case.

As to `CCOc1cn(-c2cnccn2)nc1C(=O)Nc1ccc(Oc2ccnc3cc(OC)c(OC)cc23)cn1` [Compound 36], the Kd on Axl and on Mer was less than 0.1 µM in each case.

As to `CCOc1cn(-c2cnccc2CO)nc1C(=O)Nc1ccc(Oc2ccnc3cc(OC(C)C)c(OC)cc23)cc1F` [Compound 231], the Kd at Axl and on Mer was less than 0.1 µM each time.

As to `CCOc1cn(-c2cnccc2CCN(C)C)nc1C(=O)Nc1ccc(Oc2ccnc3cc(OC)c(OC)cc23)cn1` [Compound 65], the Kd at Axl and on Mer was less than 0.1 µM each time.

For `COc1cc2nccc(Oc3ccc(NC(=O)c4nn(-c5cccnc5)cc4OCC4CC4)nc3)c2cc1OC` [Compound 255], the Kd at Axl and on Mer was less than 0.1 µM in each case.

Turning to `CCOc1cn(-c2cnsc2)nc1C(=O)Nc1ccc(Oc2ccnc3cc(OC)c(OC)cc23)cn1` [Compound 39], the Kd on Axl and on Mer was less than 0.1 µM throughout.

On to `CCOc1cn(-c2ccncc2Cl)nc1C(=O)Nc1ccc(Oc2ccnc3cc(OC)c(OC)cc23)cn1` [Compound 26], for which the Kd at Axl and on Mer was less than 0.1 µM in each case.

Regarding `COc1cc2nccc(Oc3ccc(NC(=O)c4nn(-c5cnc(N)cn5)cc4OCC(F)(F)F)nc3)c2cc1OC` [Compound 248], the Kd at Axl and at Mer was less than 0.1 µM in each case.

Take `CCOc1cn(CCOC)nc1C(=O)Nc1ccc(Oc2ccnc3cc(OC)c(OC)cc23)cn1` [Compound 64]: the Kd on Axl and at Mer was less than 0.1 µM each time.

With `CCOc1cn(CCn2cccn2)nc1C(=O)Nc1ccc(Oc2ccnc3cc(OC)c(OC)cc23)cn1` [Compound 37], the Kd on Axl and at Mer was less than 0.1 µM throughout.

Regarding `CCOc1cn(-c2ccco2)nc1C(=O)Nc1ccc(Oc2ccnc3cc(OC)c(OC)cc23)cn1` [Compound 57], the Kd at Axl and on Mer was less than 0.1 µM each time.

`CCOc1cn(-c2ccn(C)c2)nc1C(=O)Nc1ccc(Oc2ccnc3cc(OC)c(OC)cc23)cn1` [Compound 56]: the Kd on Axl and on Mer was less than 0.1 µM in each case.

With `CCC(C)Oc1cc2nccc(Oc3ccc(NC(=O)c4nn(-c5cccnc5)cc4OCC(F)(F)F)nc3)c2cc1OC` (stereo not shown) [Compound 234], the Kd on Axl and on Mer was less than 0.1 µM in each case.

Turning to `CCOc1cn(-c2cnccc2C(C)(O)CO)nc1C(=O)Nc1ccc(Oc2ccnc3cc(OC)c(OC)cc23)cc1F` (stereo not shown) [Compound 227], the Kd on Axl and at Mer was less than 0.1 µM each time.

As to `COc1cc2nccc(Oc3ccc(NC(=O)c4nn(-c5cnc(N)nc5)cc4OCC4CC4)nc3)c2cc1OC` [Compound 240], the Kd on Axl and at Mer was less than 0.1 µM each time.

For `COc1cc2nccc(Oc3ccc(NC(=O)c4nn(-c5cnc(Cl)cn5)cc4OCC(F)(F)F)nc3)c2cc1OC` [Compound 236], the Kd on Axl and at Mer was less than 0.1 µM in each case.

Regarding `COc1cc2nccc(Oc3ccc(NC(=O)c4nn(-c5cnc(N)nc5)cc4OCC4CNC4)nc3)c2cc1OC` [Compound 265], the values for the Kd at Axl and on Mer were 0.1 to 1 µM and no less than 1 µM, respectively.

Take `COc1cc2nccc(Oc3ccc(NC(=O)c4nn(-c5cccnc5)cc4OCC4CC4)nc3)c2cc1OC(F)(F)F` [Compound 239]: the Kd on Axl was less than 0.1 µM; at Mer, 0.1 to 1 µM.

These data come from patent US10934274B2, “Quinoline derivatives as TAM RTK inhibitors” (Qurient Co., Ltd., priority 2015, dated 2021).
